Assay [1] has as its target T1, Human platelet 12-lipoxygenase (12-LOX) (Homo sapiens, UniProt P18054).
T1 sequence (P18054 1-663): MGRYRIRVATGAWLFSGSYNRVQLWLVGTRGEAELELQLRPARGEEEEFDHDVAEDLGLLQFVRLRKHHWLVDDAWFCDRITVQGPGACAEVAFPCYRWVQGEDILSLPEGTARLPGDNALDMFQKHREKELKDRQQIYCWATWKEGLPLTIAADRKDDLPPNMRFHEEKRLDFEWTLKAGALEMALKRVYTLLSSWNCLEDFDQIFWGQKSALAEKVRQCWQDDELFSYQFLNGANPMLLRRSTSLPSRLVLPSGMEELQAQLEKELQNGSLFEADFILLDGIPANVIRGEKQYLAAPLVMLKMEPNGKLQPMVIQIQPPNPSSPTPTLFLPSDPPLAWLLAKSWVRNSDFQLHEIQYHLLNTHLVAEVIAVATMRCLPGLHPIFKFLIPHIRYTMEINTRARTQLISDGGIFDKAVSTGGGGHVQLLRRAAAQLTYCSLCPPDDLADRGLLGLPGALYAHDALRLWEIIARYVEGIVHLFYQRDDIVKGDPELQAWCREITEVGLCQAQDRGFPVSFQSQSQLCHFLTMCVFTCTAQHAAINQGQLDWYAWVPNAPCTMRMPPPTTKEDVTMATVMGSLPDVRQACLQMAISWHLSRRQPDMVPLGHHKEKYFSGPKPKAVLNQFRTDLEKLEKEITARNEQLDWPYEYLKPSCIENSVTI
Put plainly: Lipoxygenase UV-Vis-based manual assay, 12-LOX. The note with it: Triton X-100 from 0.005% to 0.02%. The class given is biochemical.

Assay [2] can be described thus: DPPH Antioxidant Test. To be noted: 5 μM test reagent, 500 μM DPPH. (In general: The DPPH test is a chemical assay of radical scavenging.)
For assay [3], the target named is T2, 12-LOX in primary human islets (Homo sapiens, UniProt P18054).
T2 sequence (P18054 1-663): T1 sequence (P18054 1-663)
As to the kind of experiment: Inhibition of 12-HETE Production in Human Donor Islets. Format: cell-based. The note with it: 10 μM, islets of two type 2 diabetic donors, AA + A23187.

Assay [4] deals with T3, 12-LOX in platelets (Homo sapiens, UniProt P18054).
T3 sequence (P18054 1-663): T1 sequence (P18054 1-663)
The note with it: 100 μM inhibitor, three separate experiments.

Consider `CC(=O)NC(c1cccs1)c1cc(Cl)c2cccnc2c1O` (centres unmarked) [Compound 3, N-((5-chloro-8-hydroxyquinolin-7-yl)(thiophen-2-yl)methyl)acetamide], for which the “change in IC50 with increasing Triton X-100 (aggregation test)” value in assay [1] is reported as “negligible changes in the IC50”.
`CC(Cc1ccc(O)c(O)c1)C(C)Cc1ccc(O)c(O)c1` (centres unmarked) [NDGA, Nordihydroguaiaretic acid, reference compound]: the “reduction of DPPH” value in assay [2] is “Stoichiometric reduction of DPPH”.
For `CCC(=O)NC(c1cccs1)c1cc([N+](=O)[O-])c2cccnc2c1O` (centres unmarked) [Compound 1, N-((8-hydroxy-5-nitroquinolin-7-yl)(thiophen-2-yl)methyl)propionamide], in assay [3], the “inhibition of stimulated 12-HETE production” value is given as 74%. In addition, in assay [4], the “inhibition of PAR1-AP-mediated 12-HETE production” value is reported as “significant inhibition”. Besides, in assay [2], the “reduction of DPPH” value is reported as “no reduction of DPPH was observed”.
